Source: US12265087B2, “Olfactory receptor as microglia marker and use thereof” (DAEGU GYEONGBUK INSTITUTE OF SCIENCE AND TECHNOLOGY, priority 2019, dated 2025)

Columns and labels:
[1] = tested on: primary microglia; assay: ROS / superoxide generation in primary microglia; type: cell-based, mouse
Method: Superoxide concentrations were calculated by measuring the degree ofcytochrome c reduction using a VersaMax microplate reader (Babior et al., 1973). Microglia were cultured in a 96 well plate at a concentration of 1.0×10^5 cells/well, and the microglia were activated by a 10 μM ATP solution containing 2-PF and cytochrome c, or a solution in which Sup is mixed with cytochalasin B (5 μM; #C66762; Sigma Aldrich). The concentration of ROS was measured through a change in light absorption every minute for 25 minutes at 550 nm.
ROS levels were measured using 2′,7′-dichlorodihydrofluorescein diacetate (DCF-DA, #D6883; Sigma Aldrich) by a previously described method with minor modifications (Bae et al., 2001). More specifically, primary microglia were seeded in 24-well plates (5.0×10^5 cells/well) for 24 hours, and then treated with 10 μM DCF-DA at 37° C. for 30 minutes. One plate was treated with 2-PF, and the other one was not. The cells in each well were measured using a flow cytometer (FACS Accuri™ C6; BD Biosciences). MFI was measured as described above.

[2] = tested on: Hana3A cells expressing Olfr110; assay: Boyden chamber chemotaxis assay, Hana3A cells expressing Olfr110; type: cell-based; conditions: 2-PF 10, 100 and 1000 μM
Method: (§1) Chemotaxis was measured using a multi-well Boyden chamber. More specifically, a polycarbonate filter (8 μm pore; #101-8; Neuroprobe) was coated with […] fibronectin (Sigma-Aldrich) in PBS for 2 hours, and the coated filter was installed in a Boyden chamber. In addition, the bottom side of a plate was filled with serum-free DMEM containing 2-PF or a culture supernatant. Subsequently, microglia or Hana3A cells were transfected with an OR construct, and then suspended in serum-free DMEM. The microglia were kept at 37° C. for 4 hours, and the Hana3A cells for 8 hours. Cells that migrated to the bottom surface were fixed with 4% PFA, and stained with hematoxylin for 10 minutes. The migrated cells were counted under a light microscope in five randomly selected fixed […] fields (200×) using a scored eyepiece. A chemotaxis index was defined as the migrated cell number normalized against the untreated group.

[3] = tested on: primary microglia; assay: mRNA-sequencing of primary microglia (DEGs, GOBP); type: cell-based, mouse; conditions: Sup MOI 100 or 2-PF 100 μM, 2 hours
Method: After a vehicle (control), Sup (MOI 100) or 2-PF (100 μM) treatment for 2 hours, total RNA was isolated from 2×10^6 cells of primary microglia using a RNeasy miniKit (Qiagen, 74104), and analyzed using a Qubit RNA HS assay kit (Thermo Fisher Scientific, Q32852) according to the manufacturer's standard protocol for quantification. The RNA integrity number (RIN) of each sample was measured using the Agilent Technologies 2100 BioAnalyzer, and the RINs of all samples were 8.5 or more, which is suitable for mRNA sequencing. Full-length cDNA was generated using a SMARTer-Seq v4 Ultra Low input RNA Kit (Clontech, 634888) according to the manufacturer's recommended protocol. The first strand synthesis of cDNA was initiated from 10 ng total RNA by adding 1 μl of 3′ SMART CDS primer II A for 3 minutes at 72° C. […] After PCR, the DNA library was purified using AMPure beads and quality was assessed by an Agilent 2100 Bioanalyzer. A DNA library of each sample was quantified using a KAPA library quantification kit (KAPA Biosystems, KK4854) and then pooled. All libraries were sequenced using an Illumina Hiseq2500 instrument to generate dual-indexed 100-bp paired reads, thereby obtaining an average of 58 million reads for each sample. […] The remaining reads were aligned to the mouse reference genome (GRCm38) using TopHat (Trapnell et al., 2009) with default options. […]

[4] = tested on: Hana3A cells expressing Olfr111; assay: Boyden chamber chemotaxis assay, Hana3A cells expressing Olfr111; type: cell-based; conditions: 2-PF 10, 100 and 1000 μM
Method: as §1

In the case of `CCCCCc1ccco1` [2-PF, 2-pentylfuran], the “ROS generation on top of Sup MOI 5” value ([1]; 500 μM 2-PF with Sup MOI 5) was “further increased”, the ROS secretion ([1]; 100, 300 and 500 μM) was “significantly increased in a concentration-dependent manner” and the “mobility of Olfr110 cells (chemotaxis assay)” value [2] was “increased in mobility in a concentration-dependent manner”. For the same compound, the “genes regulated (mRNA-seq)” value [3] was “up-regulate genes involved in microglial activation” and the “mobility of Olfr111 cells (chemotaxis assay)” value [4] was “increased in mobility in a concentration-dependent manner”.
